Assay results as given in ChEMBL document CHEMBL1157889, “Peripheral site acetylcholinesterase inhibitors targeting both inflammation and cholinergic dysfunction” (Bioorg Med Chem Lett, 2010).

Key:
[1] = Chemical stability assessed as hydrolysis half life in presence of 80% human plasma; format: ADME, cell-free
[2] = target: Acetylcholinesterase (Electrophorus electricus, UniProt O42275); test: Inhibition of electric eel AChE by Ellman's method
Sequence of Acetylcholinesterase (O42275 whole entry): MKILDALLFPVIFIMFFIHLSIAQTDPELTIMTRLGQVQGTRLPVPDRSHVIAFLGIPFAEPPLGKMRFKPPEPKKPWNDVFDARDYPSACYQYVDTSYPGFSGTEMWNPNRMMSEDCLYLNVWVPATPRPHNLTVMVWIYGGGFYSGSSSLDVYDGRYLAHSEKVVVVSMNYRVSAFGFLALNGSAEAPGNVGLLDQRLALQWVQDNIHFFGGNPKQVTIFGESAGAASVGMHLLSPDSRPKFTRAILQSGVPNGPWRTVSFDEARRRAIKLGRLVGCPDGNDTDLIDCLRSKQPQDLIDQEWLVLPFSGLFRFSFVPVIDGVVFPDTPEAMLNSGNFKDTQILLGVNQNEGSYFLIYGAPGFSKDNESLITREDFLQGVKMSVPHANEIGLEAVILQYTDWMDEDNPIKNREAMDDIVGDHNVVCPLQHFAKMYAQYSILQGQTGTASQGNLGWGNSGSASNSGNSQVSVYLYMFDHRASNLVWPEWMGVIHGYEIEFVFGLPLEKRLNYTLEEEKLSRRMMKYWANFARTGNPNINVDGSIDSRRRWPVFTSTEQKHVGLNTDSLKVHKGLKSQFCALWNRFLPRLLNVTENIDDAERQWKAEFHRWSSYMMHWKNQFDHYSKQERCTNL

## COc1ccc2cc([C@H](C)C(=O)OCc3ccc(OC(=O)OCCC(C)(C)C)cc3)ccc2c1
[1]
  t1/2: 2.25 h

## COc1ccc2cc([C@H](C)C(=O)OCc3ccc(OC(=O)OCC[Si](C)(C)C)cc3)ccc2c1
[1]
  t1/2: 4.22 h

## CC(C)(C)CCOC(=O)Oc1ccc(COC(=O)Cc2ccccc2Nc2c(Cl)cccc2Cl)cc1
[2]
  IC50: 510 nM
[1]
  t1/2: 5.95 h

## CC(C)Cc1ccc(C(C)C(=O)OCc2ccc(OC(=O)OCCC(C)(C)C)cc2)cc1 (centres undefined)
[1]
  t1/2: 3.4 h

## COc1ccc2c(c1)c(CC(=O)OCc1ccc(OC(=O)OCCC(C)(C)C)cc1)c(C)n2C(=O)c1ccc(Cl)cc1
[1]
  t1/2: 7.8 h

## CC(C)(C)CCOC(=O)Cc1ccccc1Nc1c(Cl)cccc1Cl
[1]
  t1/2: 1.85 h

## COc1ccc2cc([C@H](C)C(=O)OCCC(C)(C)C)ccc2c1
[1]
  t1/2: 0.633 h

## COc1ccc2cc([C@H](C)C(=O)OCC[Si](C)(C)C)ccc2c1
[1]
  t1/2: 1.05 h
